# Data from US11272706B2, “Anti-resistance method” (UPL LIMITED, priority 2017, dated 2022).
# Legend:
# [1] = system: soybean rust; assay: Field experiments at various locations in Brazil: mancozeb alone or added to commercial mixtures against soybean rust; assay type: in vivo, Phakopsora pachyrhizi; details: mancozeb applied alone
# Source text: (§1) However, its greatest contribution was proven when added to commercial blends bringing control to values of up to 80%, similar efficiency of mixtures “triazole+strobilurin” at the beginning of its use.
# Therefore, the present invention used the same strategy as the solution to recover the original control levels (>80%) and make the useful life of the fungicides longer in controlling the target disease of the invention. This is because, mancozeb, being a multi-site protective fungicide and presenting a broad spectrum of action, will also contribute to the control of other diseases in soybean and also in wheat.
# A study was conducted to determine the contribution of the mancozeb addition to mixtures of “strobilurin+triazoles.” The experiments were conducted in the field, in nine different locations, where it was determined the fungi toxicity of mancozeb to soybean rust.
# Two doses were tested (1.5 and 2.0 kg/ha) with various numbers of mancozeb applications. The effect of mancozeb (1.5 kg/ha), incorporated into commercial mixtures was also tested.
# The experiments were conducted with soybean cultivar Monsoy 9144 RR. Mancozeb formulation 750 WDG (water dispersible granules) was used, commercially available, for application of mancozeb according to Tables 6 and 7.
# [2] = system: wheat leaf spots; assay: Control of wheat leaf spots by DMI + QoI mixtures with or without mancozeb; assay type: in vivo, Drechsiera tritici-repentis; details: various locations in Brazil
# Source text: as §1
# With the addition of mancozeb, by using the method anti-resistance described in the present invention, the control has been quite improved (33.3% also as shown in Table 8).
substance,measurement,setting,value
manganese ethylene bis(dithiocarbamate)+Zn [mancozeb],"Control of soybean rust, applied alone",[1],showed the efficiency
same,"Control of yellow spot of wheat leaf, applied alone",[2],showed the efficiency
